Source: PMC3510508, “Rbg1–Tma46 dimer structure reveals new functional domains and their role in polysome recruitment” (Nucleic Acids Research, 2012)
One block for each molecule: values may come before it.

Assays:
Rbg1fl–Tma46_205–345 [1] = target: T1, Rbg1fl–Tma46_205–345 (Saccharomyces cerevisiae, UniProt P39729); assay: thermal shift assay (Sypro Orange); format: binding; details: 150 mM NaCl, 20 mM Tris pH 7.5, 2 mM DTT, ~0.05 mM protein
T1 construct: gene RBG1; 6His-tagged full-length Rbg1 (N-terminal tag) co-expressed in E. coli with Tma46 residues 205-345; heterodimer; with Translation machinery-associated protein 46
T1 sequence (P39729 1-369): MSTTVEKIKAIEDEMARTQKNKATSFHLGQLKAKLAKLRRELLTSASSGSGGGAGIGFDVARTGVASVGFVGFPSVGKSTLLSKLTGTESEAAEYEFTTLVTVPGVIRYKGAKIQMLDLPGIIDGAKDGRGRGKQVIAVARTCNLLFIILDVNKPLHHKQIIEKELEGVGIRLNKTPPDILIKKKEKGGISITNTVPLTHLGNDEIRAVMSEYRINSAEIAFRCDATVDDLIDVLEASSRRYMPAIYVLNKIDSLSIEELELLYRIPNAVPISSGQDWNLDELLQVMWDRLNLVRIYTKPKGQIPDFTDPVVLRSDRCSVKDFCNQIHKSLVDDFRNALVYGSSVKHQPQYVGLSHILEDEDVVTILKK
T1 sequence (Q12000 205-345 partner): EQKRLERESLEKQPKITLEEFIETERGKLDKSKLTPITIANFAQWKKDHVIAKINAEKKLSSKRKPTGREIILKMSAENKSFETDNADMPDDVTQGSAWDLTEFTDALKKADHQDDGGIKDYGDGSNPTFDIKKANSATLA

[2] = target: human Drg1 full length (human) (UniProt Q9Y295)
Drg1fl–Lerepo4_220–396 = target: T2, Drg1fl–Lerepo4_220–396 (Homo sapiens, UniProt Q9Y295); assay: malachite green phosphate release; format: biochemical; details: 100 mM KCl, 50 mM Tris pH 7.5, 5 mM MgCl2, 37°C, 1 h, 20 μM protein
T2 construct: gene DRG1; recombinant full-length Drg1 with C-terminal Lerepo4 fragment; with Zinc finger CCCH domain-containing protein 15
T2 sequence (Q9Y295 2-367): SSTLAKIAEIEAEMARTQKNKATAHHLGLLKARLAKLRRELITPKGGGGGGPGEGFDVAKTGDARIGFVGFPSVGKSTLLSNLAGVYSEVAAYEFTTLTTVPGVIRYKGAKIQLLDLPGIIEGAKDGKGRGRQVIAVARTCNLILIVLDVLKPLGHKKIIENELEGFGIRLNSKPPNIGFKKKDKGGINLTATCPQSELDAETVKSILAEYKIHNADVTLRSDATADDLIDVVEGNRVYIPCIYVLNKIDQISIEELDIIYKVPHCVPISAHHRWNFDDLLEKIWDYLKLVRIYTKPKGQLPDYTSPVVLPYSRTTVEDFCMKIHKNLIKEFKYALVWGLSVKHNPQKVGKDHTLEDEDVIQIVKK
T2 sequence (Q8WU90 220-396 partner): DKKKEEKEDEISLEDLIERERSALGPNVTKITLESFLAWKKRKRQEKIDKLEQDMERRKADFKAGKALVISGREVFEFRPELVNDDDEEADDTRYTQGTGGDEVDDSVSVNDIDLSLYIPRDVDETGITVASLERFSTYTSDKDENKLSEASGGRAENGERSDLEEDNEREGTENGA
From the text: malachite green phosphate release on Drg1fl–Lerepo4_220–396

Rbg1fl–Tma46_205–345 [3] = target: T3, Rbg1fl–Tma46_205–345 (Saccharomyces cerevisiae, UniProt P39729); assay: malachite green phosphate release; format: biochemical; details: 100 mM KCl, 50 mM Tris pH 7.5, 5 mM MgCl2, 37°C, 1 h, 20 μM protein
T3 construct: gene RBG1; 6His-tagged full-length Rbg1 (N-terminal tag) co-expressed in E. coli with Tma46 residues 205-345; heterodimer; with Translation machinery-associated protein 46
T3 sequence (P39729 1-369): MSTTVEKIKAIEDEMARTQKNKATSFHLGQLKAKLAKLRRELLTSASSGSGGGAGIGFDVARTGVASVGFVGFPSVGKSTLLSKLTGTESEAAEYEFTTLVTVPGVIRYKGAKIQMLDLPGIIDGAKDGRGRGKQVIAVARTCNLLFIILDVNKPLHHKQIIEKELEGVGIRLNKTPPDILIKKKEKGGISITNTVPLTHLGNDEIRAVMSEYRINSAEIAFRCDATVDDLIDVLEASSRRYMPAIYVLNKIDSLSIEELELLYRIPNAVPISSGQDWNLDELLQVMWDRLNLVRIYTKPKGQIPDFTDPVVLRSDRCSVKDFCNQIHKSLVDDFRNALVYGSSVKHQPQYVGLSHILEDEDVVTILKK
T3 sequence (Q12000 205-345 I241A partner): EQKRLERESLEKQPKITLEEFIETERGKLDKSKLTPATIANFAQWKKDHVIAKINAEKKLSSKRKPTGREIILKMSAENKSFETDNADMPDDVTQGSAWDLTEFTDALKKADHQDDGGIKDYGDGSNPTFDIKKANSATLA
From the text: (§1) malachite green phosphate release on Rbg1fl–Tma46_205–345

Rbg1fl–Tma46_205–345 [4] = target: T4, Rbg1fl–Tma46_205–345 (Saccharomyces cerevisiae, UniProt P39729); assay: malachite green phosphate release; format: biochemical; details: 100 mM KCl, 50 mM Tris pH 7.5, 5 mM MgCl2, 37°C, 1 h, 20 μM protein; remark: listed apart in the source
T4 construct: gene RBG1; 6His-tagged full-length Rbg1 (N-terminal tag) co-expressed in E. coli with Tma46 residues 205-345; heterodimer; with Translation machinery-associated protein 46
T4 sequence (P39729 1-369): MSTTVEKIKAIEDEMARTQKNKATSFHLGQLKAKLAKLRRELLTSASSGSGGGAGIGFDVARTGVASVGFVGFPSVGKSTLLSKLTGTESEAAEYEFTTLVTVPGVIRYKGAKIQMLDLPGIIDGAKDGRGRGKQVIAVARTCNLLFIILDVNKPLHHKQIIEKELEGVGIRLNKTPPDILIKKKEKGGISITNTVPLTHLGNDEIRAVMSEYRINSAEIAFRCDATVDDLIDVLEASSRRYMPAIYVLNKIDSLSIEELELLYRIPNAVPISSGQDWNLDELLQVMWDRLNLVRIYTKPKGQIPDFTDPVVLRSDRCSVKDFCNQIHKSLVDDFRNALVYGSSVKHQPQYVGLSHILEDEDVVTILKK
T4 sequence (Q12000 205-345 I241A/F246A partner): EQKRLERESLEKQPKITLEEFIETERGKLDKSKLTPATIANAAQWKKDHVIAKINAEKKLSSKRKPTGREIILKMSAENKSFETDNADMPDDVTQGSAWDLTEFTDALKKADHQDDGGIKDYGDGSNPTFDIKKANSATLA
From the text: as §1

Rbg1fl–Tma46_205–345 [5] = target: T5, Rbg1fl–Tma46_205–345 (Saccharomyces cerevisiae, UniProt P39729); assay: malachite green phosphate release; format: biochemical; details: 100 mM KCl, 50 mM Tris pH 7.5, 5 mM MgCl2, 37°C, 1 h, 20 μM protein; remark: listed apart in the source
T5 construct: gene RBG1; 6His-tagged full-length Rbg1 (N-terminal tag) co-expressed in E. coli with Tma46 residues 205-345; heterodimer; with Translation machinery-associated protein 46
T5 sequence (P39729 1-369): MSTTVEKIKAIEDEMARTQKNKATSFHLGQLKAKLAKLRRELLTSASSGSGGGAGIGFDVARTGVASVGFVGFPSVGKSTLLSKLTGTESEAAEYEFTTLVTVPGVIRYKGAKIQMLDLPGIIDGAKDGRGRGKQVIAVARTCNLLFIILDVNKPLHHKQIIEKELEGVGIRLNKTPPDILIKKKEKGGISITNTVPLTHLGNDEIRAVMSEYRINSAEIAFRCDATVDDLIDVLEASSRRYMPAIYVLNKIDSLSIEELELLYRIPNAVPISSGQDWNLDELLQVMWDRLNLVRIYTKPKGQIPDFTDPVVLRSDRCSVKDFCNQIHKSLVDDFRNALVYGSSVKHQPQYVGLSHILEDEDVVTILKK
T5 sequence (Q12000 205-345 W249A/K250E partner): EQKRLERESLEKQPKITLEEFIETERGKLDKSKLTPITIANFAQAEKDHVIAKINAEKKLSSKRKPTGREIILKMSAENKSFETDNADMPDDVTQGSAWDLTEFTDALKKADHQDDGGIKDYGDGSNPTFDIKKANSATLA
From the text: as §1

[6] = target: T6, 6His-tagged full-length Rbg1 (yeast) (UniProt P39729)
T6 sequence: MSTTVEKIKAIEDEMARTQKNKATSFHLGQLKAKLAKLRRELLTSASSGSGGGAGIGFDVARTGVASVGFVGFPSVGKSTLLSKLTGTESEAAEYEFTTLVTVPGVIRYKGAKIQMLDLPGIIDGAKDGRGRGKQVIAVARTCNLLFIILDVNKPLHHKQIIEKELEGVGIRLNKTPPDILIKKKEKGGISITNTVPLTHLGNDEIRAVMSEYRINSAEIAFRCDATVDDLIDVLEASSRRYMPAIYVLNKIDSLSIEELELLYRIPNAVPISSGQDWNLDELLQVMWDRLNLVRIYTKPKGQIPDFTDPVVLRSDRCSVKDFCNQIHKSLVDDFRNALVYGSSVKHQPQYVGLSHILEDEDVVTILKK

Molecule: Nc1nc2c(ncn2[C@@H]2O[C@H](COP(=O)(O)OP(=O)(O)OP(O)(O)=S)[C@@H](O)[C@H]2O)c(=O)[nH]1 [GTPγS]
increase in melting temperature (Rbg1fl–Tma46_205–345 [1]; 0.5 mM GTPγS in methods (0.2 mM also stated in Figure 4 legend)): increased melting temperature in the presence of the GDP, GTP or non-hydrolysable GTPγS

Molecule: Nc1nc2c(ncn2[C@@H]2O[C@H](COP(=O)(O)OP(=O)(O)OP(=O)(O)O)[C@@H](O)[C@H]2O)c(=O)[nH]1 [GTP]
Km (Drg1fl–Lerepo4_220–396): 319 ± 35 µM
increase in melting temperature (Rbg1fl–Tma46_205–345 [1]; 0.2 mM GTP): increased melting temperature in the presence of the GDP, GTP or non-hydrolysable GTPγS
Km (Rbg1fl–Tma46_205–345 [3]): 186 ± 34.5 µM
Km (Rbg1fl–Tma46_205–345 [4]): 429 ± 94.7 µM
Km (Rbg1fl–Tma46_205–345 [5]): 426 ± 52.6 µM

Molecule: Nc1nc2c(ncn2[C@@H]2O[C@H](COP(=O)(O)OP(=O)(O)O)[C@@H](O)[C@H]2O)c(=O)[nH]1 [GDP]
increase in melting temperature (Rbg1fl–Tma46_205–345 [1]; 0.2 mM GDP): increased melting temperature in the presence of the GDP, GTP or non-hydrolysable GTPγS

Results, then the molecule that gave them:

GTP hydrolysis (Malachite green), Vmax of the complex; free Drg1 showed significantly reduced activity (nmol min^−1 mg^−1) [2]: 0.115
GTP hydrolysis (Malachite green), kcat of the complex [2]: 0.000123 s⁻¹
Molecule: Lerepo4_(220–396) (from UniProt Q8WU90 220-396) (domain or fragment)

GTP hydrolysis (Malachite green), Vmax (nmol min^−1 mg^−1) [6]: 0.0406
GTP hydrolysis (Malachite green), kcat [6]: 3.83e-05 s⁻¹
B1: Tma46_(205–345 I241A) (domain or fragment)
chain: EQKRLERESLEKQPKITLEEFIETERGKLDKSKLTPATIANFAQWKKDHVIAKINAEKKLSSKRKPTGREIILKMSAENKSFETDNADMPDDVTQGSAWDLTEFTDALKKADHQDDGGIKDYGDGSNPTFDIKKANSATLA
